Measured values reported in patent US12115202B1, “Method of preventing cadmium-induced liver toxicity using a plant product derived from Achillea millefolium L” (KING FAISAL UNIVERSITY, priority 2024, dated 2024).

Legend:
[1] = test system: CdCl2-induced hepatic toxicity; assay: Determination of liver inflammatory markers; type: in vivo, rat; details: rats, CdCl2 vs control, AEO 250 mg/kg + CdCl2 vs CdCl2 group
Experimental: (§1) To study the hepatic protective activity of Achillea millefolium essential oil (AEO) on CdCl2-induced hepatic toxicity, male Wistar rats (weighing, 180 g-200 g) were purchased from the Experimental Animal Research Centre, King Saud University, Riyadh, KSA. The animals were randomly divided into four groups (n=8 per group). For Group I (the Control group), the animals were pre-administered with 0.9% NaCl (physiological saline), 2 hours before the injection of 0.9% NaCl (physiological saline) i.p., daily for 7 days. For Group II (the CdCl2 group), the animals were pre-administered with 0.9% NaCl (physiological saline) 2 hours before injection of 6.5 mg/kg CdCl2 i.p. daily for 7 days. For Group III (the AEO group), the animals were pre-administered with 250 mg/kg AEO 2 hours before the injection of 0.9% NaCl (physiological saline) i.p. daily for 7 days. For Group IV (the AEO+CdCl2 group), the animals were pre-administered with 250 mg/kg AEO 2 hours before the injection of 6.5 mg/kg CdCl2 i.p. daily for 7 days. Twenty-four hours after the last treatment, the animals were killed and the liver was quickly removed and weighed.
(§2) Parts of the frozen liver samples (50 mg) were homogenized in 1 ml ice-cold phosphate buffer saline containing a protease/phosphatase inhibitor cocktail. The homogenates were centrifuged at 10,000×g for 15 minutes at 4° C. and the supernatants were isolated to new tubes. The tubes were kept at −20° C. until further biochemical analysis.
Inflammation markers including tumor necrosis factor alpha (TNF-α), interleukin 1β (IL-1β), intracellular adhesion molecule-1 (ICAM-1) and myeloperoxidase (MPO) were measured according to the manufacturer protocol of the Kit.

[2] = test system: CdCl2-induced hepatic toxicity; assay: Liver function test (serum enzymes, ELISA kits); type: in vivo, rat; details: rats, Cd vs control group, AEO 250 mg/kg + CdCl2 vs CdCl2 group
Experimental: as §1
The activities of alanine transaminase (ALT), aspartate aminotransferase (AST), alkaline phosphatase (ALP), lactate dehydrogenase (LDH) enzymes and γ-glutamyltransferase1 (γGTT1) were determined using ELISA kits.

[3] = test system: NFκB; assay: Hepatic NFκB gene expression (qPCR); type: in vivo; details: rat liver, qPCR relative to β-actin; Cd vs control; AEO with Cd vs Cd alone group; FIG. 3D
Experimental: To study the hepatic protective activity of Achillea millefolium essential oil (AEO) on CdCl2-induced hepatic toxicity, male Wistar rats (weighing, 180 g-200 g) were purchased from the Experimental Animal Research Centre, King Saud University, Riyadh, KSA. The animals were randomly divided into four groups (n=8 per group). For Group I (the Control group), the animals were pre-administered with 0.9% NaCl (physiological saline), 2 hours before the injection of 0.9% NaCl (physiological saline) i.p., daily for 7 days. For Group II (the CdCl2 group), the animals were pre-administered with 0.9% NaCl (physiological saline) 2 hours before injection of 6.5 mg/kg CdCl2 i.p. daily for 7 days. […]
Gene expression for the Nrf2 pathway, including nuclear factor erythroid 2-related factor 2 (Nrf2), hemeoxygenase-1 (HO-1), NAD(P)H: quinone oxidoreductase 1 (NQO1) and Nuclear factor kappa B (NFκB) were quantified via real-time PCR (qPCR) consuming the primers' sequences, shown in Table 1, in agreement with the method described elsewhere. […] Relative gene expression data were calculated as mentioned earlier by the Livak and Schmittgen method (2-ΔΔCq2) and presented as a fold change. Target gene expressions were assessed and related to the reference gene (β-actin).

[4] = test system: CdCl2-induced hepatic toxicity; assay: Determination of hepatic oxidative stress markers; type: in vivo, rat; details: rats, CdCl2 vs control, AEO 250 mg/kg + CdCl2 vs CdCl2 group
Experimental: as §1, §2
Lipid peroxidation was assessed according to the amount of malondialdehyde (MDA). The activities of catalase, superoxide dismutase (SOD) glutathione peroxidase (GSH-Px) and glutathione reductase (GSH-R) were estimated using kits, according to manufacturer protocol.

[5] = Determination of Cd concentration in liver tissue; type: in vivo, rat
Experimental: as §1
Cd concentration was measured using conventional methods. Liver tissue was weighed and dried in an oven for 4 hours at 250° C. […] Cd concentrations were determined by spectrophotometry at […]. The Cd concentrations are expressed as μg/g of wet liver tissue.

[6] = test system: Nrf2/HO-1/NQO1; assay: Hepatic Nrf2 pathway gene expression (qPCR); type: in vivo; details: rat liver, qPCR relative to β-actin, Cd vs control, AEO + CdCl2 vs CdCl2 group
Experimental: To study the hepatic protective activity of Achillea millefolium essential oil (AEO) on CdCl2-induced hepatic toxicity, male Wistar rats (weighing, 180 g-200 g) were purchased from the Experimental Animal Research Centre, King Saud University, Riyadh, KSA. The animals were randomly divided into four groups (n=8 per group). For Group I (the Control group), the animals were pre-administered with 0.9% NaCl (physiological saline), 2 hours before the injection of 0.9% NaCl (physiological saline) i.p., daily for 7 days. For Group II (the CdCl2 group), the animals were pre-administered with 0.9% NaCl (physiological saline) 2 hours before injection of 6.5 mg/kg CdCl2 i.p. daily for 7 days. For Group III (the AEO group), the animals were pre-administered with 250 mg/kg AEO 2 hours before the injection of 0.9% NaCl (physiological saline) i.p. daily for 7 days. For Group IV (the AEO+CdCl2 group), the animals were pre-administered with 250 mg/kg AEO 2 hours before the injection of 6.5 mg/kg CdCl2 i.p. daily for 7 days. […]
Gene expression for the Nrf2 pathway, including nuclear factor erythroid 2-related factor 2 (Nrf2), hemeoxygenase-1 (HO-1), NAD(P)H: quinone oxidoreductase 1 (NQO1) and Nuclear factor kappa B (NFκB) were quantified via real-time PCR (qPCR) consuming the primers' sequences, shown in Table 1, in agreement with the method described elsewhere. Briefly, RNA was isolated and purified using a Trizol reagent kit (Invitrogen, Carlsbad, CA, USA), then a reverse transcription polymerase chain reaction (RT-PCR) kit (TaKaRa, Kusatsu, Shiga, Japan) following the manufacturer's procedures. qPCR was applied using a SYBR ExScript RT-PCR kit, and quantification examinations were accomplished via an Opticon-2 Real-4 time PCR reactor (MJ Research, Capital Court, Reno, NV, USA). qPCR results were obtained using Step PE Applied Biosystems (Waltham, MA, USA) software. Relative gene expression data were calculated as mentioned earlier by the Livak and Schmittgen method (2-ΔΔCq2) and presented as a fold change. Target gene expressions were assessed and related to the reference gene (β-actin).

[7] = Changes in body weight of rats in CdCl2-induced hepatic toxicity study; type: in vivo, rat; details: male Wistar rats, n=8 per group; AEO 250 mg/kg 2 hours before saline or CdCl2 6.5 mg/kg i.p., daily for 7 days; mean ± SD
Experimental: as §1

[Cl][Cd][Cl] [CdCl2]
TNF-α hepatic level ([1]; FIG. 4A): augmented | IL-1β hepatic level ([1]; FIG. 4B): augmented | MPO hepatic level ([1]; FIG. 4C): augmented | ICAM-1 hepatic level ([1]; FIG. 4D): augmented | serum ALT level ([2]; FIG. 1A): increase | serum AST level ([2]; FIG. 1B): increase | serum ALP level ([2]; FIG. 1C): increase | serum LDH level ([2]; FIG. 1D): increase | serum γGTT1 level ([2]; FIG. 1E): increase | NFκB mRNA expression level [3]: significantly augmented | hepatic MDA level (lipid peroxidation) ([4]; FIG. 2A): augmented | hepatic GSH-Px activity ([4]; FIG. 2B): considerably declined | hepatic GSH-R activity ([4]; FIG. 2C): considerably declined | hepatic SOD activity ([4]; FIG. 2D): considerably declined | hepatic CAT (catalase) activity ([4]; FIG. 2E): considerably declined | Cd concentration (μg/g liver tissue) ([5]; male Wistar rats, AEO 250 mg/kg 2 hours before saline or CdCl2 6.5 mg/kg i.p., daily for 7 days, liver 24 h after last treatment, mean ± SD): 0.74 ± 0.023 μg/g liver tissue | Concentration of Cd in hepatic tissue (change) ([5]; rats, CdCl2 vs control group, AEO prior to CdCl2 vs CdCl2 group, p<0.05): significantly increased | Nrf2 mRNA expression level ([6]; FIG. 3A): decreased | HO-1 mRNA expression level ([6]; FIG. 3B): decreased | NQO1 mRNA expression level ([6]; FIG. 3C): decreased | Final weight [7]: 190.84 ± 4.41
